According to patent EP4592274A1, “RADIOLABELED TYROSINE DERIVATIVE AND APPLICATION THEREOF” (OSAKA UNIVERSITY, priority 2022, dated 2024):

Key:
[1] = Thin-layer chromatography (TLC) analysis of decomposition after production; assay type: physicochemical; settings: 24 hours after purification; in sodium ascorbate aqueous solution (final concentration 1%)
Method: The crude product solution (1 µL) was analyzed by thin-layer chromatography (TLC). The sample was spotted on a thin-layer plate (silica gel 60F254), and a mixed solvent of acetonitrile/water (2/1) was used as a developing solvent. The thin-layer plate was exposed to an imaging plate (BAS IP MS 2025E, GE Healthcare) for about 15 min, and then analyzed by a bioimage analyzer (Tyhoon™ FLA-7000, Cytiva). The results are shown in Fig.2. ^211At-AAMT-OMe in the crude product solution was detected at Rf 0.80, and the radiochemical yield (RCY) was 81.3%.
Before purification, immediately after production, 3 hours after production, and 24 hours after production, ^211At-AAMT-OMe was analyzed by thin-layer chromatography (TLC) in the same manner as described above.
24 hours after production, (R)-^211At-AAMT-OMe was analyzed by thin-layer chromatography (TLC) in the same manner as described above.
24 hours after production, ^211At-AAMT-OEt was analyzed by thin-layer chromatography (TLC) in the same manner as described above.
24 hours after production, ^211At-AAMT-OPr was analyzed by thin-layer chromatography (TLC) in the same manner as described above.
24 hours after production, ^211At-AAMPhe-OMe was analyzed by thin-layer chromatography (TLC) in the same manner as described above.

[2] = system: CDDP-resistant A549 (A549 CDDP-r); test: Cell viability of CDDP-resistant A549 in the presence of CDDP (Test Example 7); assay type: cell-based, human; settings: A549 CDDP-r at 100 µg/mL CDDP
Method: Cisplatin (CDDP) was added to a human lung cancer cell line, A549 at an initial concentration of 1 µg/mL. After 3 days, dead cells were removed, and CDDP was again added. Cells that grew like A549 even in the presence of CDDP were isolated and maintained for 3 months while gradually increasing the concentration of CDDP in a culture medium.

[3] = system: human pancreatic cancer cell line, PANC1; test: Measurement of accumulated amounts of 211At-labeled compounds in tumors of PANC1 transplanted mice (Test Example 5); assay type: in vivo; settings: 0.1 MBq per mouse via tail vein
Method: Radiation doses before and after the administration were measured, and a difference between them was defined as an injected dose (ID). Ten minutes and one hour after administration, the mice were anesthetized by isoflurane inhalation, the tumors were isolated by autopsy in chronological order, and their radiation doses and weights were measured using a gamma counter (2480 Wizard^2, PerkinElmer) and a semimicro scale (Shimadzu Corporation, readability 10 µg), respectively. For comparison between accumulated amounts, accumulated amounts per unit amount (% ID/g) were calculated.

[4] = system: human pancreatic cancer cell line, PANC1; test: Imaging of mice subcutaneously transplanted with PANC1 (Test Example 2); settings: 2 hours after administration, 0.5 MBq per mouse via tail vein
Description: Immunodeficient mice (Balb/c-nu/nu, 5-week-old, male) were habituated for 1 week and then subcutaneously transplanted with a human pancreatic cancer cell line (PANC1, 1 × 10^7 cells/mouse). After the transplantation, the mice were observed over time until tumor reached a size large enough for imaging (about 1000 mm^3). […] Two hours after administration, the mice were anesthetized by isoflurane inhalation, and planar images were taken using a γ camera (E-cam, Siemens).

[5] = system: CDDP-resistant A549 (A549 CDDP-r); test: Cytotoxicity test on CDDP-resistant A549 (Test Example 8); settings: cultivation for 48 hours
Method: Two days before experiment, A549 and CDDP-resistant A549 (A549 CDDP-r) were each seeded in a 96-well plate at a concentration of 1 × 10^5 cells/mL. ^211At-AAMT-OMe or ^211At-AAMT adjusted to a predetermined concentration was added to A549 cells and CDDP-resistant A549 cells, respectively, and the cells were cultured (CO2 5%, 37°C). After the cultivation for 48 hours, Cell counting kit-8 (DOJINDO LABORATORIES) was added. After the addition, the cells were cultured at 37°C for 1 hour, and cell viability was measured using absorbance at 450 nm as an indicator.

PANC1 = test: Cellular uptake test (using PANC1); assay type: cell-based, human; settings: compared to 211At-AAMT; for uptake speed: PANC1 cells
Method: • Cells to be used: PANC1 • Culture medium to be used: D-MEM (containing 10% FBS, 1% P/S)
Two days before a test day, a cell suspension was prepared in such a manner that the concentration of predetermined cells was 1 x 10^5 cells/mL in the same manner as in Test Example 1. The cell suspension was seeded in a 24-well multiculture plate at a volume of 0.5 mL per well. On the day of the test, cultures were confirmed to be subconfluent (which refers to a state where 70-80% of the well is covered in density). The cells were washed twice with warmed PBS(-) Buffer (166-23555, FUJIFILM Wako Pure Chemical Corporation), the culture medium was replaced with HBSS(-) Buffer (085-09355, FUJIFILM Wako Pure Chemical Corporation), and the plate was left to stand in an incubator (MINIcell-35, WakenBtech Co., Ltd) until an RI addition test.
^211At-AAMT-OMe, ^211At-AAMT-OEt, ^211At-AAMT-OPr, or ^211At-AAMT was added to the prepared cells at 10 µL/well. BCH (LAT1 inhibitor, 20 mM) or unlabeled AMT (α-methyl tyrosine, […]) was previously (15 minutes before) added (10 µg/mL). The cells were cultured (CO2 5%, 37°C), and after 30 minutes, the liquid was removed by suction using an aspirator. The cells were washed twice with PBS(-). The cells were lysed by adding 0.1N NaOH to obtain a lysate, and the radioactivity of the lysate was measured using a γ counter. After the radioactivity measurement, the lysate was loaded into a 96-well plate at a volume of 10 µL per well, the protein amount was measured by the BCA method, and the number of cells was corrected based on the protein amount. Absorbance was measured by MultiScanFC (Thermo Fisher). The uptake level of ^211At-AAMT-OMe, ^211At-AAMT-OEt, ^211-At-AAMT-OPr, or ^211At-AAMT into the cells (number of radioactivity counts/protein amount) was calculated.

[6] = system: human pancreatic cancer cell line, PANC1; settings: up to 21 days after administration, 1 MBq per mouse
Method: Tumor sizes and body weights were measured over time after the administration. The experiment was terminated 21 days after administration. It should be noted that in Fig. 21 and Fig. 22, "OMe" is ^211At-AAMT-OMe and "OEt" is ^211At-AAMT-OEt.

A549 = test: Therapeutic test on mice subcutaneously transplanted with A549 (Test Example 9); assay type: in vivo; settings: A549, 30 days after administration, 0.5 MBq per mouse; compared with 211At-AAMT
Method: The mice were observed over time until engraftment of tumors was confirmed (50 to 100 mm^3), and when the tumors reached a predetermined size, ^211At-AAMT-OMe or ^211At-AAMT diluted with water for injection to 0.5 MBq/0.2 mL per mouse was administered via tail vein. Thirty days after administration, the mice were euthanized and tumor masses were isolated. After fat tissue and the like were trimmed off, the wet weights of the isolated tumor masses were measured to make a histogram.

[7] = system: human pancreatic cancer cell line, PANC1; test: Therapeutic test on mice subcutaneously transplanted with PANC1 (Test Example 3); assay type: in vivo
Description: Twenty-eight days after administration, the mice were euthanized and subjected to autopsy, and tumor masses were isolated after organs were examined for abnormalities.

[8] = system: CDDP-resistant A549 (A549 CDDP-r); settings: 30 days after administration, 0.5 MBq per mouse, compared with 211At-AAMT
Method: (§1) Thirty days after administration, the mice were euthanized and tumor masses were isolated. After fat tissue and the like were trimmed off, the wet weights of the isolated tumor masses were measured to make a histogram.

[9] = system: Gem-resistant PANC1 (PANC1 Gem-r); settings: mouse, in vivo
Method: as §1

HEK293-hLAT1 cells = target: T1, HEK293-hLAT1 cells (Homo sapiens, UniProt Q01650); test: Cellular uptake test (using HEK293); assay type: cell-based
T1 construct: expressed in transfected cells; host or cells: HEK293
T1 sequence (Q01650 whole entry): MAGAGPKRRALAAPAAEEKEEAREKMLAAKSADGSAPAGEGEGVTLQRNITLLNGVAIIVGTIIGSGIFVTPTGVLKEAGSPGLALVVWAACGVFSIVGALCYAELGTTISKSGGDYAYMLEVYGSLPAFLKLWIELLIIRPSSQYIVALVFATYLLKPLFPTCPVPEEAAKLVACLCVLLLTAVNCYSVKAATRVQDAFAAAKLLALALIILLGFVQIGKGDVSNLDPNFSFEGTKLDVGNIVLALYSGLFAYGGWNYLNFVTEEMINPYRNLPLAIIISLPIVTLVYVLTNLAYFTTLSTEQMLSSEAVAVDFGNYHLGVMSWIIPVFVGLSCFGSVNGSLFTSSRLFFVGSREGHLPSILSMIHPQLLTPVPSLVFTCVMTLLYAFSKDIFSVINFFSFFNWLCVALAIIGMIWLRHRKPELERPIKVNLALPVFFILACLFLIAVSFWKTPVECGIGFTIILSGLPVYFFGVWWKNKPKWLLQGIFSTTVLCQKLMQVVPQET
T1 sequence (P08195 102-630 partner): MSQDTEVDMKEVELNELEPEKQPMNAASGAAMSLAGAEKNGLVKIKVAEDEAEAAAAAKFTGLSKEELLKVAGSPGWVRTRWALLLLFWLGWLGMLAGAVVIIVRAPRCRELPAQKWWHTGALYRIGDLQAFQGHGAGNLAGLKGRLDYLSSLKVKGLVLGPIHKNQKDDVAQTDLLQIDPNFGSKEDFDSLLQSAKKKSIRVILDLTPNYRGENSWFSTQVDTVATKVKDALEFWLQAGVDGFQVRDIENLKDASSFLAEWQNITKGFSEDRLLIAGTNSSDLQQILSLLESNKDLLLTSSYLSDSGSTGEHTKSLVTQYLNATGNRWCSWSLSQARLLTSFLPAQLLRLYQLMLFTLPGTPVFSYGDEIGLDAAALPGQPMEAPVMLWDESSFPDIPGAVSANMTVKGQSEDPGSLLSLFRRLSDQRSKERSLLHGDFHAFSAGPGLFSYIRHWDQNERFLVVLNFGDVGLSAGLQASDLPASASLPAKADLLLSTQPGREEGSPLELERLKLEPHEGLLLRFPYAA
Method: • Cells to be used: HEK293-Mock, HEK293-hLAT1, HEK293-hLAT2 (HEK293: Human Embryonic Kidney cells 293) • Culture medium to be used: E-MEM (containing 10% FBS, 1% P/S, 1% NEAA)
Two days before a test day, a cell suspension was prepared in such a manner that the concentration of predetermined cells was 1 x 10^5 cells/mL. The cell suspension was seeded in a 24-well multiculture plate at a volume of 0.5 mL per well. On the day of the test, cultures were confirmed to be subconfluent (which refers to a state where 70-80% of the well is covered in density). […]
^211At-AAMT-OMe or ^211At-AAMT was added to the prepared cells at 10 µL/well. […] The cells were lysed by adding 0.1N NaOH to obtain a lysate, and the radioactivity of the lysate was measured using a γ counter. After the radioactivity measurement, the lysate was loaded into a 96-well plate at a volume of 10 µL per well, the protein amount was measured by the BCA method, and the number of cells was corrected based on the protein amount. Absorbance was measured by MultiScanFC (Thermo Fisher). The uptake level of ^211At-AAMT-OMe or ^211At-AAMT into the cells (number of radioactivity counts/protein amount) was calculated.

[10] = system: gemcitabine-resistant human pancreatic cancer cell line, PANC1 (PANC1 Gem-r); test: Cell viability of gemcitabine-resistant PANC1 in the presence of gemcitabine (Test Example 11); assay type: cell-based; settings: PANC1 Gem-r at 30 µg/mL gemcitabine
Method: Gemcitabine (Gem) was added to a human pancreatic cancer cell line, PANC1 at an initial concentration of 100 ng/mL. After 3 days, dead cells were removed, and gemcitabine was again added. Cells that grew like a human pancreatic cancer cell line, PANC1 even in the presence of gemcitabine were isolated and maintained for 3 months while gradually increasing the concentration of gemcitabine in a culture medium.

[11] = 10 minutes after administration

SMILES	decomposition (TLC) [1]	tumor accumulation [3, 11] [%ID/g]	tumor accumulation ([3]; 1 hour after administration) [%ID/g]	uptake speed (PANC1)	uptake level into the cells (number of radioactivity counts/protein amount) (PANC1)	other results
COc1ccc(C[C@@](C)(N)C(=O)O)cc1[At] [(R)-^211At-AAMT-OMe, (R)-3-astato(^211At)-O-methyl-α-methyltyrosine]	no decomposition	–	–	–	–	–
[NH2][Pt]([NH2])([Cl])[Cl] [CDDP, Cisplatin]	–	–	–	–	–	cell viability [2]: still alive
COc1cc(C[C@](C)(N)C(=O)O)ccc1[At] [^211At-AAMPhe-OMe, (S)-α-methyl-4-astato(^211At)-3-methoxyphenylalanine]	no decomposition	3.77	6.38	–	–	–
C[C@](N)(Cc1ccc(O)c([At])c1)C(=O)O [^211At-AAMT, astato(^211At)-α-methyl-L-tyrosine, reference compound]	–	0.29	2.49	–	–	accumulation in the tumor (planar image, γ camera) [4]: accumulated in the tumor sites; cytotoxicity (cell viability, Cell counting kit-8) [5]: has cytotoxicity
CCOc1ccc(C[C@](C)(N)C(=O)O)cc1[At] [^211At-AAMT-OEt, (S)-3-astato(^211At)-O-ethyl-α-methyltyrosine]	no decomposition	4.21	3.59	comparable or superior	comparable or superior	apparent toxicity induced by administration [6]: not observed; body weight [6]: gently increased; tumor growth inhibiting effect (tumor size) ([6]; compared with the 211At-AAMT-OMe administration group): comparable
COc1ccc(C[C@](C)(N)C(=O)O)cc1[211At] [^211At-AAMT-OMe, (S)-3-astato(^211At)-O-methyl-α-methyltyrosine]	no decomposition	2.59	3.78	much superior	much superior	accumulation in the tumor (planar image, γ camera) [4]: accumulated in the tumor sites; anti-tumor effect (tumor weight) (A549): comparable; cytotoxicity (cell viability, Cell counting kit-8) [5]: more remarkable cytotoxicity; tumor size (wet weight of isolated tumor masses) ([7]; 28 days after administration, 1 MBq per mouse via tail vein, compared with the 211At-AAMT administration group): slightly smaller; mouse body weight ([7]; immediately after administration to 28th day, 1 MBq per mouse, not at a level regarded as a side effect): tends to slightly reduce; anti-tumor effect (tumor weight) [8]: higher; anti-tumor effect (tumor weight) [9]: higher; tumor growth inhibiting effect (tumor size) [9]: higher; apparent toxicity induced by administration [6]: not observed; body weight [6]: gently increased; uptake level into the cells (number of radioactivity counts/protein amount) (HEK293-hLAT1 cells; HEK293-hLAT1 cells (CTL), 30 minutes, comparable to 211At-AAMT): strongly taken up; uptake into the cells in the presence of inhibitor (HEK293-hLAT1 cells; HEK293-hLAT1 cells, in the presence of BCH and AMT): significantly inhibited
CCCOc1ccc(C[C@](C)(N)C(=O)O)cc1[At] [^211At-AAMT-OPr, (S)-3-astato(^211At)-O-propyl-α-methyltyrosine]	no decomposition	5.91	9.45	comparable or superior	comparable or superior	–
Nc1ccn([C@@H]2O[C@H](CO)[C@@H](O)C2(F)F)c(=O)n1 [gemcitabine, Gemcitabine]	–	–	–	–	–	cell viability [10]: still alive
